Assay results from ChEMBL document CHEMBL1201862, “PubChem BioAssay data set” (2004).
The source made the active and inactive calls.

How the values were obtained:
Assay type in all cases: functional
[1] = target: Vascular endothelial growth factor receptor 2 (Homo sapiens, UniProt P35968)
[2] = target: Vascular endothelial growth factor receptor 1 (Homo sapiens, UniProt P17948);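 also: measured within a kinome-wide profiling panel, FLT1 as the panel member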
[3] = target: Serine/threonine-protein kinase Nek4 (Homo sapiens, UniProt P51957)
[4] = target: T1, Mitogen-activated protein kinase 12 (Homo sapiens, UniProt P53778);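 also: measured as one member of a kinome-wide kinase profiling panel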
T1 sequence (P53778 whole entry): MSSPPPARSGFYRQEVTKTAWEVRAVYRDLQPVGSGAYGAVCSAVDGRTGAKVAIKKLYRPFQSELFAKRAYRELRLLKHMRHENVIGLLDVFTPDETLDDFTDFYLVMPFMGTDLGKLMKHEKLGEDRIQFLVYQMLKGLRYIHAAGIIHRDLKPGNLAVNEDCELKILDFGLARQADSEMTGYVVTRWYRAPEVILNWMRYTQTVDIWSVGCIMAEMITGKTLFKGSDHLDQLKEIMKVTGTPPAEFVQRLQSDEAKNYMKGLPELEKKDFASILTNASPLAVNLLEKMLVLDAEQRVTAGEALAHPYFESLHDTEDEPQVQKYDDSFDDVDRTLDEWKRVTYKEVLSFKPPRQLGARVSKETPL

[5] = target: RAC-gamma serine/threonine-protein kinase (Homo sapiens, UniProt Q9Y243)
[6] = target: Proto-oncogene tyrosine-protein kinase receptor Ret (Homo sapiens, UniProt P07949);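 also: measured within a kinome-wide profiling panel, RET as the panel member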
[7] = target: Serine/threonine-protein kinase N2 (Homo sapiens, UniProt Q16513)
Serine/threonine-protein kinase N2, sequence (Q16513 whole entry): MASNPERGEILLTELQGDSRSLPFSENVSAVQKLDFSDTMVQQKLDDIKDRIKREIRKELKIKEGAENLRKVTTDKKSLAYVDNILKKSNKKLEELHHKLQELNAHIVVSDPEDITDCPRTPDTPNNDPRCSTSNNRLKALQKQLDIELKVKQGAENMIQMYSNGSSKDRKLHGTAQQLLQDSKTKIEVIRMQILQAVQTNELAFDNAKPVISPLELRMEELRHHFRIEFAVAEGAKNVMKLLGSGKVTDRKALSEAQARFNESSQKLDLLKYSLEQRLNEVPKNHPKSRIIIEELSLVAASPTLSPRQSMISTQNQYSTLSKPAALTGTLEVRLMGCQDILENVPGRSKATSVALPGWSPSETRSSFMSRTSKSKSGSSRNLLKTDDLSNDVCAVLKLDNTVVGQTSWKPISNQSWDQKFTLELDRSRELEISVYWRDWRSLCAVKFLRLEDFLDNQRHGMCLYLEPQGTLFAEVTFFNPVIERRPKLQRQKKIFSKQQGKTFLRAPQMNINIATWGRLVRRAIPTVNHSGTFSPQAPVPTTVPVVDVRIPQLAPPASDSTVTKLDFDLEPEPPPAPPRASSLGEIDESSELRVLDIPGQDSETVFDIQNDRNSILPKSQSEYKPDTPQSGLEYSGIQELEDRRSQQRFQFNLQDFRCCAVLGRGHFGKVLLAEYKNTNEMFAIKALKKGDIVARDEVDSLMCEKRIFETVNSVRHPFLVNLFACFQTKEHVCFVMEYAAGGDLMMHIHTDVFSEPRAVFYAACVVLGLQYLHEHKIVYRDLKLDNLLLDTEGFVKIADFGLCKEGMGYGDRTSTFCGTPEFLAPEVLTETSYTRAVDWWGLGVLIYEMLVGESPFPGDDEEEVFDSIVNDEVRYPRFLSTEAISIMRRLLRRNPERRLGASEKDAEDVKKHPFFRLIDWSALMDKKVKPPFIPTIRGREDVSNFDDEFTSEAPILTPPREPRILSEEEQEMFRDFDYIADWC

[8] = target: Serine/threonine-protein kinase Chk1 (Homo sapiens, UniProt O14757);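 also: measured as one member of a kinome-wide kinase profiling panel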
[9] = target: T2, cGMP-dependent protein kinase 1 (Homo sapiens, UniProt Q13976);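 also: value from a kinome panel screen with PRKG1 as the panel member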
T2 sequence (Q13976 whole entry): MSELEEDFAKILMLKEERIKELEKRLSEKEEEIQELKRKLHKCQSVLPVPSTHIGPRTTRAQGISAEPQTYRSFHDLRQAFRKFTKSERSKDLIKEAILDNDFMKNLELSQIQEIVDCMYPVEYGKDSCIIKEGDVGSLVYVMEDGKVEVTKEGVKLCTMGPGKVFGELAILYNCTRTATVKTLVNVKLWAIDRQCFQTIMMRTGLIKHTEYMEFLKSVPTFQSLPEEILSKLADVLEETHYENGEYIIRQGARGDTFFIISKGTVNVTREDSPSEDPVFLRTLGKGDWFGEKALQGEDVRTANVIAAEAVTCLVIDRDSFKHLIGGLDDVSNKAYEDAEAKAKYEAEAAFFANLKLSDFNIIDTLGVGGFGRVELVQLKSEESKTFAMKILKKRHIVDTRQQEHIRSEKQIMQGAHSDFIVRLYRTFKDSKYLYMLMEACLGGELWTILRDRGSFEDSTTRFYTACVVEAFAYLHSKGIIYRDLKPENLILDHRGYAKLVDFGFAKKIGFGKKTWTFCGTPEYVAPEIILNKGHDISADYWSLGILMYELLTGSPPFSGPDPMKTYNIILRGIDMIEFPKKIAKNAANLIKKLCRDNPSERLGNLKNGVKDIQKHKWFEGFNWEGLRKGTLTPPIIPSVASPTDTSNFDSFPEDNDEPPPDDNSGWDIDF

[10] = target: Cell division cycle 7-related protein kinase (Homo sapiens, UniProt O00311);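 also: value obtained from a kinome-wide kinase panel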
Cell division cycle 7-related protein kinase, sequence (O00311 whole entry): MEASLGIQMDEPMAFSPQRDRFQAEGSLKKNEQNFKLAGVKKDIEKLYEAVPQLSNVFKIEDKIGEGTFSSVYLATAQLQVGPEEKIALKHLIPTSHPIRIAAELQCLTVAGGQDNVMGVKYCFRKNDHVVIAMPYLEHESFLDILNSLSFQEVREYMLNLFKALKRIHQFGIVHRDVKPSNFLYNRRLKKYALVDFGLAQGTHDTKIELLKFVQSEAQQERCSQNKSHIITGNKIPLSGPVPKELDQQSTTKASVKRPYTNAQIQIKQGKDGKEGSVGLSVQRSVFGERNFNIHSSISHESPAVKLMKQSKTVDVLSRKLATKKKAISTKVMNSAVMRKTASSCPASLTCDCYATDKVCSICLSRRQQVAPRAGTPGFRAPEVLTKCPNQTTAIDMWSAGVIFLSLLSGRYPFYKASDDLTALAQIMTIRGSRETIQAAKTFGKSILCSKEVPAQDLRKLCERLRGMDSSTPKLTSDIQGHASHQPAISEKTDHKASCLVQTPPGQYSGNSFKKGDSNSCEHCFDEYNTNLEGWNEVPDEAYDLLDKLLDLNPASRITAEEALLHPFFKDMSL

[11] = target: Rho-associated protein kinase 1 (Homo sapiens, UniProt Q13464);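 also: measured within a broad kinome-wide panel profiling many kinases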
Rho-associated protein kinase 1, sequence (Q13464 whole entry): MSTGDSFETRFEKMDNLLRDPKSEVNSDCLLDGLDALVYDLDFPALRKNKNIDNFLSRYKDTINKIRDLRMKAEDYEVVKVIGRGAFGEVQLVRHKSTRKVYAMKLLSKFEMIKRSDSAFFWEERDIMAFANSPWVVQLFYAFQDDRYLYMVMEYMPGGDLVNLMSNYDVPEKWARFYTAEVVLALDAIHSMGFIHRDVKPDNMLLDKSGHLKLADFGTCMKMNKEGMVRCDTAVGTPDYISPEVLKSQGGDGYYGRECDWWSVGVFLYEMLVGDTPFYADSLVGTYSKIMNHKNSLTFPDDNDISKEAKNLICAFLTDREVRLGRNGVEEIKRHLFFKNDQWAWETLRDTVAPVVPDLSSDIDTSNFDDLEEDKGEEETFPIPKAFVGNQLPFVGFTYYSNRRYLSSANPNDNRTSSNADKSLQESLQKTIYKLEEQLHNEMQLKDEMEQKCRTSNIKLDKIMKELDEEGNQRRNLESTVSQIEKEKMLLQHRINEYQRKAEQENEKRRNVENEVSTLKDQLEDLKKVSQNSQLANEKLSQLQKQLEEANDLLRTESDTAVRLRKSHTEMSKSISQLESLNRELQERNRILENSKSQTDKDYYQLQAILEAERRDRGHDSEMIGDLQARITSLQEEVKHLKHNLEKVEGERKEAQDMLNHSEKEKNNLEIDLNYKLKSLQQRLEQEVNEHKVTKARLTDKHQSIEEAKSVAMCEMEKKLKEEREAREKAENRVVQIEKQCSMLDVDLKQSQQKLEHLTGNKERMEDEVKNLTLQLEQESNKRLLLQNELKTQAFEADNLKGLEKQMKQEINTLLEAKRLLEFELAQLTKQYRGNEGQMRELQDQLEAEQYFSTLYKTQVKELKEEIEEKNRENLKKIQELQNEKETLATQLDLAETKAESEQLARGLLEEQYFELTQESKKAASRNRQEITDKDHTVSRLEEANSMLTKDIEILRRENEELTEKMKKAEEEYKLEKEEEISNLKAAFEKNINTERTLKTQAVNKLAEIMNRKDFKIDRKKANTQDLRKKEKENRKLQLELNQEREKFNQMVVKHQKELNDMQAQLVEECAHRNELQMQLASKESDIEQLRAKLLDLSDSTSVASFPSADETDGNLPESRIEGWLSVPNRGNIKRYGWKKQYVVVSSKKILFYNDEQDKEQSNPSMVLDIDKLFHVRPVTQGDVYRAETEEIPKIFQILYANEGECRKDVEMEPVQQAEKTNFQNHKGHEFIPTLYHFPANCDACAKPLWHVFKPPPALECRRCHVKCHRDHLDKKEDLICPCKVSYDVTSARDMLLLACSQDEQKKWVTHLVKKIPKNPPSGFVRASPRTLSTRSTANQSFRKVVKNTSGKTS

[12] = target: Hepatocyte growth factor receptor (Homo sapiens, UniProt P08581);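 also: kinase panel profiling across the kinome, with MET as the panel member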
[13] = target: Glycogen synthase kinase-3 alpha (Homo sapiens, UniProt P49840);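 also: GSK3A result taken from a broad kinome-wide kinase panel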
Glycogen synthase kinase-3 alpha, sequence (P49840 whole entry): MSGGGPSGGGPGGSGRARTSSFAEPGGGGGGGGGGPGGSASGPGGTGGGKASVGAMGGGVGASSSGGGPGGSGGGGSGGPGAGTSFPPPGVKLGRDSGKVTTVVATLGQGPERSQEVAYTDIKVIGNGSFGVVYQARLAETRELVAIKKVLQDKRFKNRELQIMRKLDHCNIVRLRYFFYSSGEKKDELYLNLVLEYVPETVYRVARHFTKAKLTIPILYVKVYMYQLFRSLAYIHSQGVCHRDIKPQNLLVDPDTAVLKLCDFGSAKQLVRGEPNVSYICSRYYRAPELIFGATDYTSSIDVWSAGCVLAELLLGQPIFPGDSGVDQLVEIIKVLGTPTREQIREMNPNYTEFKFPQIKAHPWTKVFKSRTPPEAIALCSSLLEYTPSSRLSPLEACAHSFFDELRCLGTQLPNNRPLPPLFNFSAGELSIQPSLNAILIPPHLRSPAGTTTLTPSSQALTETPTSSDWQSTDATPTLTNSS

[14] = target: T3, cAMP-dependent protein kinase catalytic subunit PRKX (Homo sapiens, UniProt P51817)
T3 sequence (P51817 whole entry): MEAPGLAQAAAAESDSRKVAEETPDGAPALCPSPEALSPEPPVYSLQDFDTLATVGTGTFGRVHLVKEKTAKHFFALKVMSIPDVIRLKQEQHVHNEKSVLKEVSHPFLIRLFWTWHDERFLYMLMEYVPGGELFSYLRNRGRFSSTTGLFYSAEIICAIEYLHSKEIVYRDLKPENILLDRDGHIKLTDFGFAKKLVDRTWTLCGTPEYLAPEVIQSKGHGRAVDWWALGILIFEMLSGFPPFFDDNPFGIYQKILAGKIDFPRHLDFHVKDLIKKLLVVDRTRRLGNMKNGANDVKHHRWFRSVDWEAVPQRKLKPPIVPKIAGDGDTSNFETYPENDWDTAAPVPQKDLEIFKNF

[15] = target: Fibroblast growth factor receptor 3 (Homo sapiens, UniProt P22607)
[16] = target: Calcium/calmodulin-dependent protein kinase type II subunit alpha (Homo sapiens, UniProt Q9UQM7); assay: Navigating the Kinome. Panel member name: CAMK2A
[17] = target: T4, Dual specificity tyrosine-phosphorylation-regulated kinase 3 (Homo sapiens, UniProt O43781);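 also: measured as one member of a broad kinase panel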
T4 sequence (O43781 whole entry): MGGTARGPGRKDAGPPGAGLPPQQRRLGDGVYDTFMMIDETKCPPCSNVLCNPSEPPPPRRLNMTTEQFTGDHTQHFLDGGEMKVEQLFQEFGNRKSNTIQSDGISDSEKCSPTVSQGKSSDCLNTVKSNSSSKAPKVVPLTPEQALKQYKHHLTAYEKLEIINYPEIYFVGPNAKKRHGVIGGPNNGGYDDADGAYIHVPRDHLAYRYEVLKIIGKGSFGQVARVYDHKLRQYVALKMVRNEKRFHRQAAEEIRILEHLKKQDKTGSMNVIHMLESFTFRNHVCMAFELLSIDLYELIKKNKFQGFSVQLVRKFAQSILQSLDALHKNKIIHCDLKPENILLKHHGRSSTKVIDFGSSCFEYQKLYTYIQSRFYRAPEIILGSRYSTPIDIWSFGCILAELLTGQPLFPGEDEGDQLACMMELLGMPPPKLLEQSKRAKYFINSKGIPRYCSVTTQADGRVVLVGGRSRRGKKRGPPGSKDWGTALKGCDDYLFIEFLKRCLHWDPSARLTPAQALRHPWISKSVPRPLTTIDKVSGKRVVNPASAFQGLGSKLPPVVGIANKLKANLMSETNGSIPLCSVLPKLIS

[18] = target: Tyrosine-protein kinase SYK (Homo sapiens, UniProt P43405)

Vascular endothelial growth factor receptor 2, sequence (P35968 whole entry): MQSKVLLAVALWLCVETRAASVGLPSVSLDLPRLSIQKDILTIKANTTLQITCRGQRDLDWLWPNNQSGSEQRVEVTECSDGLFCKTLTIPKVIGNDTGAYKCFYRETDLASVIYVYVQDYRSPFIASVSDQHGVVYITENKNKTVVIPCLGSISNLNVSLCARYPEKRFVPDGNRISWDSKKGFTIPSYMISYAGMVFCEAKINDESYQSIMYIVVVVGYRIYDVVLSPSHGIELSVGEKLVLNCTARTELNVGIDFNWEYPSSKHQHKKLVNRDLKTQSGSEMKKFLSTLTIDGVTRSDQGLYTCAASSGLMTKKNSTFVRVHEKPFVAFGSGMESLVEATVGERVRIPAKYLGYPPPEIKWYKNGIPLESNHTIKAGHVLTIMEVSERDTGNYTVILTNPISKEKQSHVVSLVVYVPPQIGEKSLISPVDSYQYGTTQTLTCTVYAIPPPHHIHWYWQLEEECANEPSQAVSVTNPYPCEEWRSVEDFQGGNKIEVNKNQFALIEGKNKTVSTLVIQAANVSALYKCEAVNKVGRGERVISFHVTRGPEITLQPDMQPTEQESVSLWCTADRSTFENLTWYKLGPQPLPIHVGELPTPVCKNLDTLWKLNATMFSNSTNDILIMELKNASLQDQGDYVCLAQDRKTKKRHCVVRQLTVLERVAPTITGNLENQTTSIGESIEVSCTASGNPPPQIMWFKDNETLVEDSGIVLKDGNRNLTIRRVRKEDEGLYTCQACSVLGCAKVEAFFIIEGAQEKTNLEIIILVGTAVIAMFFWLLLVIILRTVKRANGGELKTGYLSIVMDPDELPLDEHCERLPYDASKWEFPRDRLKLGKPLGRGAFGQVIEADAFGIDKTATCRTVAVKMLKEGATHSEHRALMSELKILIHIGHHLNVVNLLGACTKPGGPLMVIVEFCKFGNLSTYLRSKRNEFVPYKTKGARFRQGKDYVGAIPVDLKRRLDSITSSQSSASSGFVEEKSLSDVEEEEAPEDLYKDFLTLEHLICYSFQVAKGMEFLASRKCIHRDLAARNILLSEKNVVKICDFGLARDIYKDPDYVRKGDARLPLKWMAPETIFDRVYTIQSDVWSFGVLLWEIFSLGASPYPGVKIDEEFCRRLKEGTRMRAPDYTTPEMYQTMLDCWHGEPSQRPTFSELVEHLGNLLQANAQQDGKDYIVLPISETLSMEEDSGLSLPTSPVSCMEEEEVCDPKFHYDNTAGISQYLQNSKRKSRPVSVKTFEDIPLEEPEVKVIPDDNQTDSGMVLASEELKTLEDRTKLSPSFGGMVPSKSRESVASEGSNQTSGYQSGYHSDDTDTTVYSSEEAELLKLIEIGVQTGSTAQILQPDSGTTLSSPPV

Compound: NC(=O)c1cc(-c2ccnc(N)n2)[nH]c1-c1ccc(Cl)cc1Cl
- Ki [1]: 794 nM (active)
- pKi [1]: 6.1
- Ki [2]: > 398 nM (inactive)
- Ki [3]: 50.1 nM (active)
- pKi [3]: 7.3
- Ki [4]: 79.4 nM (active)
- pKi [4]: 7.1
- Ki [5]: 6310 nM (active)
- pKi [5]: 5.2
- Ki [6]: > 1260 nM (inactive)
- Ki [7]: 20 nM (active)
- pKi [7]: 7.7
- Ki [8]: > 7940 nM (inactive)
- Ki [9]: 794 nM (active)
- pKi [9]: 6.1
- Ki [10]: 0.2 nM (active)
- pKi [10]: 9.7
- Ki [11]: 126 nM (active)
- pKi [11]: 6.9
- Ki [12]: > 2510 nM (inactive)
- Ki [13]: 6.31 nM (active)
- pKi [13]: 8.2
- Ki [14]: 1000 nM (active)
- pKi [14]: 6
- Ki [15]: > 2000 nM (inactive)
- Ki [16]: > 7940 nM (inactive)
- Ki [17]: 10 nM (active)
- pKi [17]: 8
- Ki [18]: > 1580 nM (inactive)

Compound: NC(COc1cncc(-c2ccc3c(c2)C(=Cc2ccco2)C(=O)N3)c1)Cc1c[nH]c2ccccc12 (configuration not stated)
- Ki [1]: 398 nM (active)
- Ki [2]: > 398 nM (inactive)
- Ki [3]: 1580 nM (active)
- Ki [4]: 2510 nM (active)
- Ki [5]: 5.01 nM (active)
- Ki [6]: 50.1 nM (active)
- Ki [7]: 5.01 nM (active)
- Ki [8]: 398 nM (active)
- Ki [9]: 1.26 nM (active)
- Ki [10]: 251 nM (active)
- Ki [11]: 31.6 nM (active)
- Ki [12]: > 3160 nM (inactive)
- Ki [13]: 398 nM (active)
- Ki [14]: 7.94 nM (active)
- Ki [15]: > 2000 nM (inactive)
- Ki [17]: 7.94 nM (active)
- Ki [18]: 1580 nM (active)

Compound: Cc1ccc(-n2nc(C(C)(C)C)cc2NC(=O)Nc2ccc(OCCN3CCOCC3)c3ccccc23)cc1 [DORAMAPIMOD]
- Ki [16]: > 3980 nM (inactive)
